Assay results taken from US12297187B2, “Compound having cyclic structure” (Daiichi Sankyo Company, Limited, priority 2017, dated 2025).

Test system: IL-10
Test: Measurement of IL-10 increase rate (LPS-induced inflammation in mice, serum IL-10 by ELISA)
Type: in vivo
Conditions: Mus musculus, 2 h, oral 100 mg/kg in 0.5% methyl cellulose, LPS 0.4 mg/kg i.p. one hour later, serum taken one hour after LPS, % control ratio vs 0.5% methyl cellulose group, read-out: IL10 Increase Rate (%)
Protocol: A test substance was suspended in a 0.5% (w/v) methyl cellulose and orally administered to mice at a dose of 100 mg/kg. One hour later, a lipopolysaccharide (LPS, Sigma-Aldrich, L2630 (trade name)) (0.4 mg/kg) was intraperitoneally administered to induce inflammation. One hour after administration of LPS, blood was taken from the vena cava under anesthesia with isoflurane, placed in a tube containing a serum separating agent, allowed to stand still at room temperature for 20-30 minutes and centrifuged at 4° C. at 12,000 rpm for 5 minutes to obtain the serum. Thereafter, the amount of the IL-10 in the serum was measured by using Mouse IL-10 Quantikine ELISA Kit (R&D systems, M1000B (trade name)) or Mouse IL-10 Immunoassay kit (PerkinElmer, AL502 (trade name)) in accordance with the protocol of the kit. The serum was diluted 10 times with the dilution solution contained in the kit and put in use. IL-10 increase rate (% control ratio) of the compound was calculated in accordance with the following expression: IL-10 increase rate (% control ratio) (IL10 amount in compound administration group)×100/(IL-10 amount in 0.5% (w/v) methyl cellulose administration group)

Compound	response vs control in vivo at 100 mg/kg
Cn1c(COc2cc(C(F)(F)F)ccn2)nnc1[C@H]1CC[C@H](c2cnn([C@H]3C[C@H](O)[C@@H](N4CCC4)C3)c2)CC1 (racemic) [Example 28, (1SR,2SR,4RS)-2-(Azetidin-1-yl)-4-(4-{trans-4-[4-methyl-5-({[4-(trifluoromethyl)pyridin-2-yl]oxy}methyl)-4H-1,2,4-triazol-3-yl]cyclohexyl}-1H-pyrazol-1-yl)cyclopentanol]	113%
Cn1c(COc2cc(C(F)(F)F)ccn2)nnc1[C@H]1CC[C@H](c2cnn([C@H]3CC[C@H](N4CCC5(COC5)C4)CC3)c2)CC1 [Example 26, 6-[trans-4-(4-{trans-4-[4-Methyl-5-({[4-(trifluoromethyl)pyridin-2-yl]oxy}methyl)-4H-1,2,4-triazol-3-yl]cyclohexyl}-1H-pyrazol-1-yl)cyclohexyl]-2-oxa-6-azaspiro[3.4]octane]	231%
CN1CCC(c2cnn(-c3ccc(-c4nnc(COc5cccc(C(F)(F)F)c5)n4C)cc3)c2)CC1 [Example 16, 1-Methyl-4-{1-[4-(4-methyl-5-{[3-(trifluoromethyl)phenoxy]methyl}-4H-1,2,4-triazol-3-yl)phenyl]-1H-pyrazol-4-yl}piperidine]	170%
CC(C)c1cccc(O[C@H](C)c2nnc([C@H]3CC[C@H](C4=NOC5(CCN(C)CC5)C4)CC3)n2C)c1 [Example 36, 8-Methyl-3-[trans-4-(4-methyl-5-{(1R)-1-[3-(propan-2-yl)phenoxy]ethyl}-4H-1,2,4-triazol-3-yl)cyclohexyl]-1-oxa-2,8-diazaspiro[4.5]dec-2-ene]	230%
CC(C)c1cccc(OCc2nnc([C@@H]3CC[C@@H](n4cc(C5(F)CCN(C)CC5)nn4)CO3)n2C)c1 [Example 13, 4-Fluoro-1-methyl-4-{1-[(3R,6S)-6-(4-methyl-5-{[3-(propan-2-yl)phenoxy]methyl}-4H-1,2,4-triazol-3-yl)tetrahydro-2H-pyran-3-yl]-1H-1,2,3-triazol-4-yl}piperidine]	156%
Cn1c(COc2cc(C(F)(F)F)ccn2)nnc1[C@H]1CC[C@H](c2cnn([C@H]3CC[C@H](N4CCOCC4)CC3)c2)CC1 [Example 23, 4-[trans-4-(4-{trans-4-[4-Methyl-5-({[4-(trifluoromethyl)pyridin-2-yl]oxy}methyl)-4H-1,2,4-triazol-3-yl]cyclohexyl}-1H-pyrazol-1-yl)cyclohexyl]morpholine]	232%
Cn1c(COC2CCCC(C(F)(F)F)C2)nnc1[C@H]1CC[C@H](c2cnn([C@H]3CC[C@H](N4CC5(CCOC5)C4)CC3)c2)CC1 (stereo partly drawn) [Example 32, 2-[trans-4-(4-{trans-4-[4-Methyl-5-({[3-(trifluoromethyl)cyclohexyl]oxy}methyl)-4H-1,2,4-triazol-3-yl]cyclohexyl}-1H-pyrazol-1-yl)cyclohexyl]-6-oxa-2-azaspiro[3.4]octane]	202%
CN1CCC(c2cn(-c3ccc(-c4nnc(COc5cccc(C(F)(F)F)c5)n4C)cc3)nn2)CC1 [Example 1, 1-Methyl-4-{1-[4-(4-methyl-5-{[3-(trifluoromethyl)phenoxy]methyl}-4H-1,2,4-triazol-3-yl)phenyl]-1H-1,2,3-triazol-4-yl}piperidine]	146%
CN(C)C12CCC(c3cn([C@H]4CC[C@H](c5nnc(COc6cccc(C(F)(F)F)c6)n5C)CC4)nn3)(CC1)CC2 [Example 11, N,N-Dimethyl-4-{1-[trans-4-(4-methyl-5-{[3-(trifluoromethyl)phenoxy]methyl}-4H-1,2,4-triazol-3-yl)cyclohexyl]-1H-1,2,3-triazol-4-yl}bicyclo[2.2.2]octan-1-amine]	180%
Cn1c(COc2cc(C(F)(F)F)ccn2)nnc1[C@H]1CC[C@H](c2cnn([C@H]3CC[C@H](N4CC5(CCOC5)C4)CC3)c2)CC1 [Example 27, 2-[trans-4-(4-{trans-4-[4-Methyl-5-({[4-(trifluoromethyl)pyridin-2-yl]oxy}methyl)-4H-1,2,4-triazol-3-yl]cyclohexyl}-1H-pyrazol-1-yl)cyclohexyl]-6-oxa-2-azaspiro[3.4]octane]	255%
CC(C)c1cccc(O[C@@H](C)c2nnc(C34CCC(n5cc(-c6ccc([C@@H](C)N7CCC7)cc6)nn5)(CC3)CC4)n2C)c1 [Example 7, 4-{4-[(1R)-1-(Azetidin-1-yl)ethyl]phenyl}-1-[4-(4-methyl-5-{(1S)-1-[3-(propan-2-yl)phenoxy]ethyl}-4H-1,2,4-triazol-3-yl)bicyclo[2.2.2]oct-1-yl]-1H-1,2,3-triazole]	113%
Cn1c(COc2cccc(C(F)(F)F)c2)nnc1[C@H]1CC[C@H](c2cnn([C@H]3CC[C@H](N4CCC4)CC3)c2)CC1 [Example 21, 3-(trans-4-{1-[trans-4-(Azetidin-1-yl)cyclohexyl]-1H-pyrazol-4-yl}cyclohexyl)-4-methyl-5-{[3-(trifluoromethyl)phenoxy]methyl}-4H-1,2,4-triazole]	312%
CN1CCC(F)(c2cn([C@H]3CC[C@H](c4nnc5n4CCCC5Oc4cccc(C(F)(F)F)c4)CC3)nn2)CC1 (stereo partly drawn) [Example 15, 3-{trans-4-[4-(4-Fluoro-1-methylpiperidin-4-yl)-1H-1,2,3-triazol-1-yl]cyclohexyl}-8-[3-(trifluoromethyl)phenoxy]-5,6,7,8-tetrahydro[1,2,4]triazolo[4,3-a]pyridine]	227%
CC(C)c1cccc(OCc2nnc([C@H]3CC[C@H](n4cc(C5(F)CCN(C)CC5)nn4)CC3)n2C)c1 [Example 3, 4-Fluoro-1-methyl-4-{1-[trans-4-(4-methyl-5-{[3-(propan-2-yl)phenoxy]methyl}-4H-1,2,4-triazol-3-yl)cyclohexyl]-1H-1,2,3-triazol-4-yl}piperidine]	179%
CN1CCC(c2nnc(-c3ccc(-c4nnc(COc5cccc(C(F)(F)F)c5)n4C)cc3)o2)CC1 [Example 34, 1-Methyl-4-{5-[4-(4-methyl-5-{[3-(trifluoromethyl)phenoxy]methyl}-4H-1,2,4-triazol-3-yl)phenyl]-1,3,4-oxadiazol-2-yl}piperidine]	202%
CN(C)C12CCC(c3cn([C@H]4CC[C@H](c5nnc(COc6cccc(C(F)(F)F)c6)n5C)CC4)nn3)(CC1)OC2 [Example 9, N,N-Dimethyl-1-{1-[trans-4-(4-methyl-5-{[3-(trifluoromethyl)phenoxy]methyl}-4H-1,2,4-triazol-3-yl)cyclohexyl]-1H-1,2,3-triazol-4-yl}-2-oxabicyclo[2.2.2]octan-4-amine]	182%
Cn1c(COc2cccc(C(F)(F)F)c2)nnc1[C@H]1CC[C@H](n2cc(C34CCC(CN5CCC5)(CC3)CC4)nn2)CC1 [Example 10, 4-[4-(Azetidin-1-ylmethyl)bicyclo[2.2.2]oct-1-yl]-1-[trans-4-(4-methyl-5-{[3-(trifluoromethyl)phenoxy]methyl}-4H-1,2,4-triazol-3-yl)cyclohexyl]-1H-1,2,3-triazole]	390%
Cn1c(COc2cccc(C(F)(F)F)c2)nnc1[C@H]1CC[C@H](n2cc([C@H]3CC[C@H](N4CCC4)CC3)cn2)CC1 [Example 17, 3-(trans-4-{4-[trans-4-(Azetidin-1-yl)cyclohexyl]-1H-pyrazol-1-yl}cyclohexyl)-4-methyl-5-{[3-(trifluoromethyl)phenoxy]methyl}-4H-1,2,4-triazole]	334%
CC(C)c1cccc(O[C@H](C)c2nnc([C@H]3CC[C@H](n4cc(C5(F)CCN(C)CC5)nn4)CC3)n2C)c1 [Example 4, 4-Fluoro-1-methyl-4-{1-[trans-4-(4-methyl-5-{(1R)-1-[3-(propan-2-yl)phenoxy]ethyl}-4H-1,2,4-triazol-3-yl)cyclohexyl]-1H-1,2,3-triazol-4-yl}piperidine]	131%
